In patent US20100184803A1, “Treatment of Lysosomal Storage Diseases” (priority 2007, published 2010):
“Also recorded” adds a separate entry of the source.

How the values were obtained:
UCH-L1 [1] = assay: Membrane association of UCH-L1 in SH-SY5Y cells (membrane fractionation, 2D electrophoresis, Western blotting); format: cell-based; settings: compared to cells treated with DMSO
Description: Membrane fractionation: Cells were harvested by scraping and washed with PBS. Cell pellet was suspended in lysis buffer (50 mM Tris-HCl, 1 mM EDTA) supplemented with protease inhibitor cocktail (Sigma) and homogenized by passing through 26G needles 10 times. Suspension was clarified by spinning at 600 g for 5 minutes. Clarified suspension was ultracentrifuged at 100,000 g for 2 hours and separated into membrane and cytosol. Membrane fraction was washed with washing buffer (50 mM Tris-HCl, 1 mM EDTA 1 M NaCl), and pelleted each time with bench-top centrifuge.
2D electrophoresis: For the isolation of total cellular protein, cultured SH-SY5Y cells maintained as described above were rinsed with ice-cold PBS. Cells were lysed in 1 ml dSDS buffer (50 mM Tris-HCl, pH 8.0 0.1% SDS) supplemented with protease inhibitor cocktail. Lysates were boiled for 3 min, and were treated with Dnase and Rnase as described. […]
Western Blotting: Following transfer of SDS gels onto NC membrane, all membranes were blocked with 5% non-fat milk in TBST (50 mM Tris-HCl pH 7.4, 150 mM NaCl, 0.1% Tween 20), and incubated with primary antibody overnight with 1% BSA in TBST, washed three times with TBST, and incubated with horseradish peroxidase-conjugated secondary antibody for 1 hour (Promega). Bound antibodies were detected using enhanced chemiluminascence (NEM).

UCH-L1 [2] = assay: Total amount and turnover of UCH-L1 in SH-SY5Y cells (pulse-chase, not shown); format: cell-based

With `COC(=O)[C@H](CCSC)NC(=O)c1ccc(NC[C@@H](N)CS)cc1-c1ccccc1` [FTI-277] the “amount of cytosolic UCH-L1” value (UCH-L1 [1]) was “without affecting”, the “amount of membrane bound UCH-L1 (membrane-associated, farnesylated species)” value (UCH-L1 [1]) was “significant decrease; also recorded: decreased; also recorded: reducing” and the “total amount of UCH-L1” value (UCH-L1 [2]) was “reduced”. The “rate of turnover of UCH-L1” value (UCH-L1 [2]; pulse-chase experiment not shown) was “increased”.
